In US20240025907A1, “QUINAZOLINE PAN-KRas INHIBITORS” (Mirati Therapeutics, Inc., priority 2022, published 2024):
Where two headings read alike, the source gives them in different places.

Columns and labels:
Assay type in all cases: cell-based
[1] = test system: KRas-mediated Phosphorylation of ERK in H358 cells; test: Cisbio HTRF pERK assay, H358 cells; settings: for IC50: H358 cells, 3 hrs compound, read-out: Inhibition (HTRF IC50 nM) of KRas-mediated Phosphorylation of ERK, H358
[2] = test system: KRas-mediated Phosphorylation of ERK in H727 cells; test: Cisbio HTRF pERK assay, H727 cells; settings: for IC50: 3 hrs compound, read-out: Inhibition (HTRF IC50 nM) of KRas-mediated Phosphorylation of ERK, H727
[3] = test system: KRas-mediated Phosphorylation of ERK in H460 cells; test: Cisbio HTRF pERK assay, H460 cells; settings: for IC50: H460 cells, 3 hrs compound, read-out: Inhibition (HTRF IC50 nM) of KRas-mediated Phosphorylation of ERK, H460
[4] = test system: KRas-mediated Phosphorylation of ERK in HCT116 cells; test: Cisbio HTRF pERK assay, HCT116 cells; settings: for IC50: HCT116 cells, 3 hrs compound, read-out: Inhibition (HTRF IC50 nM) of KRas-mediated Phosphorylation of ERK, HCT116
[5] = test system: KRas-mediated Phosphorylation of ERK in PSN1 cells; test: Cisbio HTRF pERK assay, PSN1 cells; settings: 3 hour compound, read-out: Inhibition (HTRF IC50 nM) of KRas-mediated Phosphorylation of ERK, PSN1
Procedure: Inhibition of KRas Phosphorylation of ERK (HTRF) by Exemplary Compounds of Formula (I) • Cisbio HTRF Advanced pERK Assay Catalog #64AERPEH • Cell: MKN1, PSN1 • Procedure: • Day 1: Seed 6,000 cells/well −25 μl/well in 384-well white solid bottom plate; RPM1_10% FBS.

[6] = test system: KRas-mediated Phosphorylation of ERK in A549 cells; test: Cisbio HTRF pERK assay, A549 cells; settings: for IC50: A549 cells, 3 hrs compound, read-out: Inhibition (HTRF IC50 nM) of KRas-mediated Phosphorylation of ERK, A549
[7] = test system: KRas-mediated Phosphorylation of ERK in AsPC-1 cells; test: Cisbio HTRF pERK assay, AsPC-1 cells; settings: for IC50: 3 hrs compound, read-out: Inhibition (HTRF IC50 nM) of KRas-mediated Phosphorylation of ERK, AsPC-1

Compound | IC50 [1] | IC50 [2] | IC50 [3] | IC50 [4] | IC50 [6] | IC50 [7] | IC50 [5] | other results
CN(C)C(=O)c1cc2n(n1)CCCN(c1nc(OC[C@@]34CCCN3C/C(=C\F)C4)nc3c(F)c(-c4ccc(F)c5sc(N)c(C#N)c45)c(Cl)cc13)C2 (atropisomer, axis not shown) [Example 195, 5-((R)-7-(2-amino-3-cyano-7-fluorobenzo[b]thiophen-4-yl)-6-chloro-8-fluoro-2-(((S,Z)-2-(fluoromethylene)tetrahydro-1H-pyrrolizin-7a(5H)-yl)methoxy)quinazolin-4-yl)-N,N-dimethyl-5,6,7,8-tetrahydro-4H-pyrazolo[1,5-a][1,4]diazepine-2-carboxamide] | 1 nM | 2 nM | 2 nM | 6 nM | 2 nM |  |  | IC50 ([5]; Homo sapiens, PSN1, 3 h): 115 nM
N#Cc1c(N)sc2c(F)ccc(-c3c(Cl)cc4c(N5CCC5)nc(OC[C@@]56CCCN5C[C@H](F)C6)nc4c3F)c12 [Example 206, 2-amino-4-(4-(azetidin-1-yl)-6-chloro-8-fluoro-2-(((2R,7aS)-2-fluorotetrahydro-1H-pyrrolizin-7a(5H)-yl)methoxy)quinazolin-7-yl)-7-fluorobenzo[b]thiophene-3-carbonitrile] |  |  |  |  |  |  |  | IC50 ([1]; Homo sapiens, NCI-H358, 3 h): 60 nM; IC50 ([2]; Homo sapiens, NCI-H727, 3 h): 55 nM; IC50 ([7]; Homo sapiens, ASPC1, 3 h): 246 nM; IC50 ([3]; Homo sapiens, NCI-H460, 3 h): 173 nM; IC50 ([4]; Homo sapiens, HCT-116, 3 h): 367 nM; IC50 ([5]; Homo sapiens, PSN1, 3 h): 4890 nM; IC50 ([6]; Homo sapiens, A549, 3 h): 244 nM
C=C1CN2CCC[C@@]2(COc2nc(N3CC4CCC(C3)N4)c3cc(Cl)c(-c4ccc(F)c5sc(N)c(C#N)c45)c(F)c3n2)C1 [Example 183, (S)-4-(4-((1R,5S)-3,8-diazabicyclo[3.2.1]octan-3-yl)-6-chloro-8-fluoro-2-(((S)-2-methylenetetrahydro-1H-pyrrolizin-7a(5H)-yl)methoxy)quinazolin-7-yl)-2-amino-7-fluorobenzo[b]thiophene-3-carbonitrile] | 6740 nM | > 10000 nM | 8090 nM | 4800 nM | > 10000 nM | 254 nM | 6150 nM | 
C=C1CN2CCC[C@]2(COc2nc(N3CC4CCC(C3)N4)c3cc(Cl)c(-c4ccc(F)c5sc(N)c(C#N)c45)c(F)c3n2)C1 [Example 181, (S)-4-(4-((1R,5S)-3,8-diazabicyclo[3.2.1]octan-3-yl)-6-chloro-8-fluoro-2-(((R)-2-methylenetetrahydro-1H-pyrrolizin-7a(5H)-yl)methoxy)quinazolin-7-yl)-2-amino-7-fluorobenzo[b]thiophene-3-carbonitrile] | 4560 nM | 8500 nM | 9660 nM | 8030 nM | > 10000 nM | 950 nM | 5260 nM | 
N#Cc1c(N)sc2c(F)ccc(-c3c(Cl)cc4c(N5CCCn6nc(N)cc6C5)nc(OC[C@@]56CCCN5C[C@H](F)C6)nc4c3F)c12 [Example 187, 2-amino-4-(4-(2-amino-7,8-dihydro-4H-pyrazolo[1,5-a][1,4]diazepin-5(6H)-yl)-6-chloro-8-fluoro-2-(((2R,7aS)-2-fluorotetrahydro-1H-pyrrolizin-7a(5H)-yl)methoxy)quinazolin-7-yl)-7-fluorobenzo[b]thiophene-3-carbonitrile] |  |  |  |  |  |  |  | IC50 ([1]; Homo sapiens, NCI-H358, 3 h): 12 nM; IC50 ([2]; Homo sapiens, NCI-H727, 3 h): 148 nM; IC50 ([7]; Homo sapiens, ASPC1, 3 h): 41 nM; IC50 ([3]; Homo sapiens, NCI-H460, 3 h): 78 nM; IC50 ([4]; Homo sapiens, HCT-116, 3 h): 176 nM; IC50 ([5]; Homo sapiens, PSN1, 3 h): 1060 nM; IC50 ([6]; Homo sapiens, A549, 3 h): 106 nM
C=C1CN2CCC[C@@]2(COc2nc(N3CC4CCC(C3)N4)c3cc(Cl)c(-c4ccc(F)c5sc(N)c(C#N)c45)c(F)c3n2)C1 [Example 184, (R)-4-(4-((1R,5S)-3,8-diazabicyclo[3.2.1]octan-3-yl)-6-chloro-8-fluoro-2-(((S)-2-methylenetetrahydro-1H-pyrrolizin-7a(5H)-yl)methoxy)quinazolin-7-yl)-2-amino-7-fluorobenzo[b]thiophene-3-carbonitrile] | 40 nM | 610 nM | 82 nM | 39 nM | 160 nM | 1 nM | 701 nM | 
CN(C)C(=O)n1cc2c(n1)CCCN(c1nc(OC[C@@]34CCCN3C[C@H](F)C4)nc3c(F)c(-c4ccc(F)c5sc(N)c(C#N)c45)c(Cl)cc13)C2 [Example 185, 5-((R)-7-(2-amino-3-cyano-7-fluorobenzo[b]thiophen-4-yl)-6-chloro-8-fluoro-2-(((2R,7aS)-2-fluorotetrahydro-1H-pyrrolizin-7a(5H)-yl)methoxy)quinazolin-4-yl)-N,N-dimethyl-5,6,7,8-tetrahydropyrazolo[4,3-c]azepine-2(4H)-carboxamide] | 1 nM | 3 nM | 9 nM | 17 nM | 12 nM | 2 nM | 1800 nM | 
N#Cc1c(N)sc2c(F)ccc(-c3c(Cl)cc4c(N5CCCn6nc(N)c(Cl)c6C5)nc(OC[C@@]56CCCN5C[C@H](F)C6)nc4c3F)c12 (atropisomer, axis not shown; (aS)) [Example 188, 2-amino-4-((R)-4-(2-amino-3-chloro-7,8-dihydro-4H-pyrazolo[1,5-a][1,4]diazepin-5(6H)-yl)-6-chloro-8-fluoro-2-(((2R,7aS)-2-fluorotetrahydro-1H-pyrrolizin-7a(5H)-yl)methoxy)quinazolin-7-yl)-7-fluorobenzo[b]thiophene-3-carbonitrile] | 2 nM | 10 nM | 13 nM | 18 nM | 14 nM | 3 nM | 544 nM | 
N#Cc1c(N)sc2c(F)ccc(-c3c(Cl)cc4c(N5CCCn6nc(N)c(Cl)c6C5)nc(OC[C@@]56CCCN5C[C@H](F)C6)nc4c3F)c12 (atropisomer, axis not shown; (aS)) [Example 189, 2-amino-4-((S)-4-(2-amino-3-chloro-7,8-dihydro-4H-pyrazolo[1,5-a][1,4]diazepin-5(6H)-yl)-6-chloro-8-fluoro-2-(((2R,7aS)-2-fluorotetrahydro-1H-pyrrolizin-7a(5H)-yl)methoxy)quinazolin-7-yl)-7-fluorobenzo[b]thiophene-3-carbonitrile] | 327 nM | 882 nM | 1530 nM | 2470 nM | 3350 nM | 472 nM | 7470 nM | 
CCc1c(F)ccc2cc(O)cc(-c3c(F)cc4c(N5CCCC6(CCO6)C5)nc(OCC5(CN(C)C)CC5)nc4c3F)c12 (centres unmarked) [Example 82, 4-(2-((1-((dimethylamino)methyl)cyclopropyl)methoxy)-6,8-difluoro-4-(1-oxa-6-azaspiro[3.5]nonan-6-yl)quinazolin-7-yl)-5-ethyl-6-fluoronaphthalen-2-ol] |  |  |  |  |  |  |  | inhibition at 0.1 µM ([1]; Homo sapiens, NCI-H358, H358 cells, single point at 100 nM): 80%; inhibition at 0.1 µM ([2]; Homo sapiens, NCI-H727, single point at 100 nM): 34%; inhibition at 0.1 µM ([7]; Homo sapiens, ASPC1, single point at 100 nM): 72%; inhibition at 0.1 µM ([3]; Homo sapiens, NCI-H460, H460 cells, single point at 100 nM): 63%; inhibition at 0.1 µM ([4]; Homo sapiens, HCT-116, HCT116 cells, single point at 100 nM): 24%; inhibition at 0.1 µM ([6]; Homo sapiens, A549, A549 cells, single point at 100 nM): 33%
N#Cc1c(N)sc2c(F)ccc(-c3c(Cl)cc4c(N5CC6CCC(C5)N6)nc(OC[C@@]56CCCN5C/C(=C\F)C6)nc4c3F)c12 [Example 179, (S)-4-(4-((1R,5S)-3,8-diazabicyclo[3.2.1]octan-3-yl)-6-chloro-8-fluoro-2-(((S,Z)-2-(fluoromethylene)tetrahydro-1H-pyrrolizin-7a(5H)-yl)methoxy)quinazolin-7-yl)-2-amino-7-fluorobenzo[b]thiophene-3-carbonitrile] | 2610 nM | 6810 nM | 2320 nM | 3770 nM | 3140 nM | 116 nM |  | 
